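Assay format: 96-well plates, 48-hour exposure. GI50 = concentration required for 50% inhibition of growth. TGI marks complete inhibition of growth.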
What was measured:
Assay in all cases: NCI-60 cell line screen, 48 h
HT29 colon = system: HT29 colon
SF-539 CNS = system: SF-539 CNS
NCI-H226 lung = system: NCI-H226 lung
SF-268 CNS = system: SF-268 CNS
A498 renal = system: A498 renal
T-47D breast = system: T-47D breast
HL-60(TB) leukemia = system: HL-60(TB) leukemia
MOLT-4 leukemia = system: MOLT-4 leukemia
NCI-H23 lung = system: NCI-H23 lung
MDA-MB-231 breast = system: MDA-MB-231 breast
SNB-75 CNS = system: SNB-75 CNS
SR leukemia = system: SR leukemia
NCI-H522 lung = system: NCI-H522 lung
MALME-3M melanoma = system: MALME-3M melanoma
SK-MEL-2 melanoma = system: SK-MEL-2 melanoma
NCI-H460 lung = system: NCI-H460 lung
HCT-116 colon = system: HCT-116 colon
DU-145 prostate = system: DU-145 prostate
HS 578T breast = system: HS 578T breast
SN12C renal = system: SN12C renal
SNB-19 CNS = system: SNB-19 CNS
UO-31 renal = system: UO-31 renal
UACC-62 melanoma = system: UACC-62 melanoma
SK-OV-3 ovarian = system: SK-OV-3 ovarian
CAKI-1 renal = system: CAKI-1 renal
MCF7 breast = system: MCF7 breast
COLO 205 colon = system: COLO 205 colon
M14 melanoma = system: M14 melanoma
UACC-257 melanoma = system: UACC-257 melanoma
PC-3 prostate = system: PC-3 prostate
ACHN renal = system: ACHN renal
BT-549 breast = system: BT-549 breast
RPMI-8226 leukemia = system: RPMI-8226 leukemia
RXF 393 renal = system: RXF 393 renal
K-562 leukemia = system: K-562 leukemia
SF-295 CNS = system: SF-295 CNS
IGROV1 ovarian = system: IGROV1 ovarian
A549 NSCLC = system: A549 NSCLC
OVCAR-8 ovarian = system: OVCAR-8 ovarian
CCRF-CEM leukemia = system: CCRF-CEM leukemia
HCT-15 colon = system: HCT-15 colon
HOP-92 NSCLC = system: HOP-92 NSCLC
NCI/ADR-RES ovarian = system: NCI/ADR-RES ovarian
U251 CNS = system: U251 CNS
HOP-62 NSCLC = system: HOP-62 NSCLC
SK-MEL-28 melanoma = system: SK-MEL-28 melanoma
SW-620 colon = system: SW-620 colon
MDA-MB-435 = system: MDA-MB-435
SK-MEL-5 melanoma = system: SK-MEL-5 melanoma
KM12 colon = system: KM12 colon
786-0 renal = system: 786-0 renal
OVCAR-5 ovarian = system: OVCAR-5 ovarian
HCC-2998 colon = system: HCC-2998 colon
LOX IMVI melanoma = system: LOX IMVI melanoma
TK-10 renal = system: TK-10 renal

COc1ccc(-c2nn(-c3cccc(NC(=O)Nc4cccc(C(F)(F)F)c4)c3)cc2-c2ccncc2)cc1Cl
GI50 (HT29 colon): 2.24 µM | TGI (HT29 colon): 49.1 µM | GI50 (SF-539 CNS): 1.97 µM | TGI (SF-539 CNS): 6.45 µM | GI50 (NCI-H226 lung): 2.14 µM | TGI (NCI-H226 lung): 9.43 µM | GI50 (SF-268 CNS): 3.22 µM | TGI (SF-268 CNS): > 100 µM | GI50 (A498 renal): 1.61 µM | TGI (A498 renal): 5.81 µM | GI50 (T-47D breast): 1.17 µM | TGI (T-47D breast): 7.69 µM | GI50 (HL-60(TB) leukemia): 1.95 µM | TGI (HL-60(TB) leukemia): 6.26 µM | GI50 (MOLT-4 leukemia): 1.76 µM | TGI (MOLT-4 leukemia): 8.38 µM | GI50 (NCI-H23 lung): 3.02 µM | TGI (NCI-H23 lung): > 100 µM | GI50 (MDA-MB-231 breast): 2.18 µM | TGI (MDA-MB-231 breast): 19.8 µM | GI50 (SNB-75 CNS): 1.51 µM | TGI (SNB-75 CNS): 8.37 µM | GI50 (SR leukemia): 1.31 µM | TGI (SR leukemia): 4.84 µM | GI50 (NCI-H522 lung): 1.6 µM | TGI (NCI-H522 lung): 6.07 µM | GI50 (MALME-3M melanoma): 2.07 µM | TGI (MALME-3M melanoma): 8.72 µM | GI50 (SK-MEL-2 melanoma): 2.37 µM | TGI (SK-MEL-2 melanoma): 5.23 µM | GI50 (NCI-H460 lung): 1.76 µM | TGI (NCI-H460 lung): 11.5 µM | GI50 (HCT-116 colon): 1.31 µM | TGI (HCT-116 colon): 9.04 µM | GI50 (DU-145 prostate): 3.56 µM | TGI (DU-145 prostate): > 100 µM | GI50 (HS 578T breast): 1.65 µM | TGI (HS 578T breast): 7.84 µM | GI50 (SN12C renal): 2.4 µM | TGI (SN12C renal): > 100 µM | GI50 (SNB-19 CNS): 3.85 µM | TGI (SNB-19 CNS): > 100 µM | GI50 (UO-31 renal): 1.48 µM | TGI (UO-31 renal): > 100 µM | GI50 (UACC-62 melanoma): 2.02 µM | TGI (UACC-62 melanoma): 5.59 µM | GI50 (SK-OV-3 ovarian): 3.58 µM | TGI (SK-OV-3 ovarian): > 100 µM | GI50 (CAKI-1 renal): 1.77 µM | TGI (CAKI-1 renal): > 100 µM | GI50 (MCF7 breast): 1.91 µM | TGI (MCF7 breast): > 100 µM | GI50 (COLO 205 colon): 1.69 µM | TGI (COLO 205 colon): 3.69 µM | GI50 (M14 melanoma): 1.63 µM | TGI (M14 melanoma): 4.62 µM | GI50 (UACC-257 melanoma): 2.28 µM | TGI (UACC-257 melanoma): 10.8 µM | GI50 (PC-3 prostate): 0.986 µM | TGI (PC-3 prostate): 8.54 µM | GI50 (ACHN renal): 1.88 µM | TGI (ACHN renal): > 100 µM | GI50 (BT-549 breast): 1.68 µM | TGI (BT-549 breast): 4.55 µM | GI50 (RPMI-8226 leukemia): 1.02 µM | TGI (RPMI-8226 leukemia): 4.54 µM | GI50 (RXF 393 renal): 1.33 µM | TGI (RXF 393 renal): 6.37 µM | GI50 (K-562 leukemia): 1.92 µM | TGI (K-562 leukemia): > 100 µM | GI50 (SF-295 CNS): 1.69 µM | TGI (SF-295 CNS): 7.32 µM | GI50 (IGROV1 ovarian): 3.73 µM | TGI (IGROV1 ovarian): > 100 µM | GI50 (A549 NSCLC): 1.83 µM | TGI (A549 NSCLC): > 100 µM | GI50 (OVCAR-8 ovarian): 1.7 µM | TGI (OVCAR-8 ovarian): 10.4 µM | GI50 (CCRF-CEM leukemia): 1.54 µM | TGI (CCRF-CEM leukemia): 7.59 µM | GI50 (HCT-15 colon): 1.81 µM | TGI (HCT-15 colon): > 100 µM | GI50 (HOP-92 NSCLC): 0.229 µM | TGI (HOP-92 NSCLC): 3 µM | GI50 (NCI/ADR-RES ovarian): 2.29 µM | TGI (NCI/ADR-RES ovarian): > 100 µM | GI50 (U251 CNS): 1.06 µM | TGI (U251 CNS): 3.98 µM | GI50 (HOP-62 NSCLC): 2.81 µM | TGI (HOP-62 NSCLC): 10.9 µM | GI50 (SK-MEL-28 melanoma): 2.57 µM | TGI (SK-MEL-28 melanoma): 22.6 µM | GI50 (SW-620 colon): 3.37 µM | TGI (SW-620 colon): > 100 µM | GI50 (MDA-MB-435): 1.45 µM | TGI (MDA-MB-435): 4.67 µM | GI50 (SK-MEL-5 melanoma): 1.57 µM | TGI (SK-MEL-5 melanoma): 3.22 µM | GI50 (KM12 colon): 1.47 µM | TGI (KM12 colon): 5.23 µM | GI50 (786-0 renal): 2.28 µM | TGI (786-0 renal): 10.1 µM | GI50 (OVCAR-5 ovarian): 3.73 µM | TGI (OVCAR-5 ovarian): > 100 µM | GI50 (HCC-2998 colon): 5.32 µM | TGI (HCC-2998 colon): > 100 µM | GI50 (LOX IMVI melanoma): 3.02 µM | TGI (LOX IMVI melanoma): > 100 µM | GI50 (TK-10 renal): 4.1 µM | TGI (TK-10 renal): > 100 µM
